In patent US4436662A, “Pyrrolo[3,4-d][2]benzazepinones” (Hoffmann-La Roche Inc., priority 1983, dated 1984):
Where two headings read alike, the source gives them in different places.

Key:
[1] = target: 3H-Diazepam binding, rat brain cortical fragments; assay: 3H-Diazepam Binding Assay; details: read-out: IC50 (nM), concentration required to inhibit binding by 50%, Tris buffer, assayed in triplicate
Experimental: Brief-Description: Rat brain cortical fragments are prepared and the binding procedures performed as described by Mohler and Okada (Life Sciences, 20, 2101, 1977) except that Tris buffer is substituted for Krebs buffer. Drugs are assayed in triplicate.
Measurements Made: Radioactivity is measured by liquid scintillation counting.

[2] = LD50 (po) acute lethality; parameters: species or system mice; details: mouse, in vivo
[3] = tested on: convulsions (metrazol iv); assay: Intravenous Antimetrazol Test; assay type: in vivo, Male CF-1 mice; details: Mus musculus, po, 1 h
Experimental: Intravenous Antimetrazol Test
Brief Description: Male CF-1 mice, 45-54 days old, housed in facilities for one week and food-deprived for about 24 hours, are used in this test. The test compound, dispersed in 5% acacia, is administered orally to three mice at 1/10 the dose at which lethality occurred in the TSP testing. One hour later, metrazol is administered intravenously at 70 mg/kg (convulsant dose 100 mg/kg) and animals are observed 30 seconds for protection against convulsions. If the compound is active orally, 3 animals are used per dose level.
Measurements Made: The number of animals protected from convulsions.
Calculations: If the drug is active and three mice are used per dose level, the approximate ED50 is calculated by the method of Miller and Tainter (Proc. Soc. Exp. Biol. Med. 57:261, 1944). If six or more mice are used per dose level, the ED50 values and 95% fiducial limits are calculated using a computer program based on the method of D. J. Finney ("Probit Analysis", Cambridge University Press, Cambridge, England, 1971).

[4] = mice, printed in binding results table
[5] = printed in antimetrazol results table
[6] = 1 hour before metrazol 70 mg/kg iv, 50% of animals protected from convulsive seizures, test compounds, read-out: ED50
[7] = standard drugs, read-out: ED50 (95% Fiducial Limits)

Structure (SMILES): CC1NC(=O)C2=C1c1ccc(Cl)cc1C(c1ccccc1Cl)=NC2 (centres unmarked) [8-Chloro-6-(2-chlorophenyl)-1,4-dihydro-1-methylpyrrolo[3,4-d][2]benzazepin-3(2H)-one]
- IC50 [1]: 1 nM
- LD50 [2, 4]: > 1000 mg/kg
- LD50 [2, 5]: > 1000 mg/kg
- ED50 [3, 6]: 0.08 mg/kg

Structure (SMILES): CN1CC2=C(CN=C(c3ccccc3Cl)c3cc(Cl)ccc32)C1=O [8-chloro-6-(2-chlorophenyl)-1,4-dihydro-2-methylpyrrolo[3,4-d][2]benzazepin-3(2H)-one]
- LD50 [2, 4]: 800 mg/kg
- LD50 [2, 5]: 800 mg/kg
- ED50 [3, 6]: 0.08 mg/kg

Structure (SMILES): CNC1=Nc2ccc(Cl)cc2C(c2ccccc2)=[N+]([O-])C1 [Chlordiazepoxide]
- ED50 [3, 7]: 3.9 mg/kg

Structure (SMILES): CN1C(=O)CN=C(c2ccccc2)c2cc(Cl)ccc21 [Diazepam]
- ED50 [3, 7]: 1 mg/kg

Structure (SMILES): CCN(CC)CCN1C(=O)CN=C(c2ccccc2F)c2cc(Cl)ccc21 [Flurazepam, reference compound]
- IC50 [1]: 15.6 nM

Structure (SMILES): CCC1(c2ccccc2)C(=O)NC(=O)NC1=O [Sodium Phenobarbital]
- ED50 [3, 7]: 19 mg/kg
